The target in the first data set is T1, EphA4 receptor (Mus musculus, UniProt Q03137).
T1 construct: The brains were removed and one half of each brain was weighed and homogenized; from tissue; host or cells: mouse brain (NMRI mice), homogenate
T1 sequence (Q03137 20-986): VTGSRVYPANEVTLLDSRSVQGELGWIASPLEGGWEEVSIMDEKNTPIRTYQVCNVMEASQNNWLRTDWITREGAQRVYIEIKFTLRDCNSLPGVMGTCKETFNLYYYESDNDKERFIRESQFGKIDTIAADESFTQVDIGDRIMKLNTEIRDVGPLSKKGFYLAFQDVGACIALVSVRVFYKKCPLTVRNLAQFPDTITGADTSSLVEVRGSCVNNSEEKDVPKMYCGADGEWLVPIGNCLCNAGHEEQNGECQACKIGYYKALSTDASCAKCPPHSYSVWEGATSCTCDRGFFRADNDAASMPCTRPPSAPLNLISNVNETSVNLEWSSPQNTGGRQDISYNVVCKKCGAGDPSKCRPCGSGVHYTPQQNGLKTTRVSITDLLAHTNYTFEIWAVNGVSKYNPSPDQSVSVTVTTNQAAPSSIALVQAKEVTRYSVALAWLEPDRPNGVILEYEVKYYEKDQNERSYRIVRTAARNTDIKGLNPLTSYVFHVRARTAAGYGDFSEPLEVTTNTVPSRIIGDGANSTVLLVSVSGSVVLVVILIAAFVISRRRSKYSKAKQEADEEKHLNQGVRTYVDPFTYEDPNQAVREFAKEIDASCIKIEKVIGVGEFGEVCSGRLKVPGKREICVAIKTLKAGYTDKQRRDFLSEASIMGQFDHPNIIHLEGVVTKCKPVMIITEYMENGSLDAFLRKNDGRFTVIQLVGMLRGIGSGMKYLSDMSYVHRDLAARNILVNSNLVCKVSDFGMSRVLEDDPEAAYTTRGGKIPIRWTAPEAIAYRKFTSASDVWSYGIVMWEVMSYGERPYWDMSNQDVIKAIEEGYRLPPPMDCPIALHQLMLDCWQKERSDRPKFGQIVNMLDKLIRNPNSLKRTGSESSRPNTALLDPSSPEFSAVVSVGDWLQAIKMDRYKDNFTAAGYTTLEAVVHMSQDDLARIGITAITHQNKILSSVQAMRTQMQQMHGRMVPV
Description: Proof of mechanism: EphA4 phosphorylation in vivo in mouse brain (EphA4 immunoprecipitation, phospho-tyrosine Western blot). The arrangement: species or system NMRI mice. As to conditions: i.v. dose 10 mg/kg; sacrificed 25 minutes or 1 hour after dosing; brain homogenate. As to the method: Male NMRI mice were injected with relevant compounds at a dose of 10 mg/kg body weight and were sacrificed either 25 minutes or 1 hour following the dosing (0.25 h or 1 h shown in FIG. 4). The brains were removed and one half of each brain was weighed and homogenized in appropriate volume of lysis buffer for 30 seconds (10 seconds pulse and 10 seconds off—3 times). The homogenate was spun at 12,000 g for 30 minutes. Protein amounts were estimated for supernatants (using BCA) and equal amounts of protein for each condition were subjected to EphA4 immunoprecipitation followed by a phospho-tyrosine western blot. Four control animals were used and three experimental animals per time point were used for each of the compounds tested.
(Immunoblotting shows a protein as a band on a membrane.)
Turning to `Cc1ccc(C(=O)Nc2cccc(C(F)(F)F)c2)cc1-c1ccc2ccncc2c1` [Compound 3, 3-Isoquinolin-7-yl-4-methyl-N-(3-trifluoromethyl-phenyl)-benzamide], the “EphA4 phosphorylation in vivo in mouse brain” value was “block EphA4 phosphorylation in vivo in mouse brain”.

The next data set relates to astrocytes. Nature of the data set: Astrocyte scratch wound assay (in vitro assay for astrogliosis). In kind it is cell-based, C57BL/6 mice. As to conditions: cytokines (TGF-α, LIF, and IFN) plus 10 nM compound; serum free=1. The procedure: Assay Astrocytes are prepared from the cerebral cortex of neonatal C57BL/6 mice(P1-P2). Cells are maintained in Dulbecco's modified Eagle's medium with 10% FBS. 4-7 weeks old astrocytes are plated to confluence in 2 well chamber slides coated with poly-D-lysine for the scratch wound assay and serum starved. 48 hrs after serum starvation, the monolayer of astrocytes is scratched with sterile 200 μl tips and washed twice with PBS to get rid of cell debris. Conditioned medium (±cytokines) is added to the wounded astrocytes. The microscopic images of the scratch is captured at a magnification of 10× right after scratch and considered as time point 0.24 hrs, 48 hrs or 72 hrs after scratch, the same region of scratch is imaged and fixed with methanol containing 1 μg/ml of DAPI to monitor migration and proliferation of astrocytes.
`Cc1ccc(C(=O)Nc2cccc(C(F)(F)F)c2)cc1-c1ccc2ccncc2c1` [Compound 3, 3-Isoquinolin-7-yl-4-methyl-N-(3-trifluoromethyl-phenyl)-benzamide]: the “astrocyte migration induced by cytokines (relative area of cell migration compared to control)” value is “block astrocyte migration induced by cytokines”.

Tested on in the next data set: not given
Test: not given
Conditions: not given
Take `Cc1ccc(NC(=O)c2cccc(C(F)(F)F)c2)cc1-c1ccc2ccncc2c1` [Compound 1, N-(3-Isoquinolin-7-yl-4-methyl-phenyl)-3-trifluoromethyl-benzamide]: the melting point is 148 to 152 °C.
In turn, `Cc1ccc(NC(=O)c2cccc(C(F)(F)F)c2)cc1-c1ccc2ncsc2c1` [Compound 5, N-(3-Benzothiazol-6-yl-4-methyl-phenyl)-3-trifluoromethyl-benzamide] yielded a melting point of 94 to 96 °C.
On the same count and under the same terms, then `Cc1ccc(C(=O)Nc2cccc(C(F)(F)F)c2)cc1-c1ccc2ncsc2c1` [Compound 6, 3-Benzothiazol-6-yl-4-methyl-N-(3-trifluoromethyl-phenyl)-benzamide], with 102 to 104 °C; and `Cc1ccc(NC(=O)c2cccc(C(F)(F)F)c2)cc1-c1ccc2cnncc2c1` [Compound 7, N-(4-Methyl-3-phthalazin-6-yl-phenyl)-3-trifluoromethyl-benzamide], with 205 to 206 °C; and `Cc1ccc(C(=O)Nc2cccc(C(F)(F)F)c2)cc1-c1ccc2cnncc2c1` [Compound 8, 4-Methyl-3-phthalazin-6-yl-N-(3-trifluoromethyl-phenyl)-benzamide], with 270 to 272 °C.
With `Cc1ccc(NC(=O)c2cccc(C(F)(F)F)c2)cc1-c1ccc2scnc2c1` [Compound 9, N-(3-Benzothiazol-5-yl-4-methyl-phenyl)-3-trifluoromethyl-benzamide], the melting point lay within 90 to 93 °C.
On the same count and under the same terms, the value for `Cc1ccc(C(=O)Nc2cccc(C(F)(F)F)c2)cc1-c1ccc2scnc2c1` [Compound 10, 3-Benzothiazol-5-yl-4-methyl-N-(3-trifluoromethylphenyl)benzamide] was 200 to 202 °C.

The term melting point denotes the temperature of the solid-liquid transition.

These data come from US20090306083A1, “Use of Trifluoromethyl Substituted Benzamides in teh Treatment of Neurological Disorders” (Novartis AG, priority 2006, published 2009).
